Source: patent US6664231B1, “Anti-fungal peptides” (priority 1993, dated 2003)
Square brackets hold non-standard residues; d marks the D form. Peptide text beside a SMILES is read from it. * marks the point of attachment. Lauroyl = CCCCCCCCCCCC(=O)*; Orn = NCCC[C@H](N)C(=O)O; Dab = NCC[C@H](N)C(=O)O

Columns and labels:
in vitro = in vitro ADME, rat or human serum; conditions: half-life of peptide in serum as detected by HPLC analysis; for half-life at 0.5 mg/mL: serum, read-out: HPLC Peptide in Serum t ½ (converted)
Protocol: (§1) For these serum stability experiments, peptides were prepared by solid phase peptide sythesis and purified to 94% or greater purity as described in Example 1. Blood was collected from metaphane anesthesized rats by aortic bleed into Vacutainer™ tubes and allowed to clot at room temperature for approximately 30 minutes, then centrifuged at 3000 rpm (about 1000×g) for 10 minutes at room temperature and the serum aspirated. In addition, frozen human serum (North American Biologics, Inc., Miami, Fla., cat. no. 2140, lot no. 94115) was thawed at room temperature and filtered through a 0.45 μm membrane before use.
(§2) A 1 mg/mL solution of an exemplary XMP peptide to be tested was added to an equal volume of either rat or human serum described above and maintained at 37° C. At 0, 1, 2, and 4 hours, 100 μL were removed and processed by solid phase extraction for HPLC analysis as follows. Serum samples were prepared for HPLC using C-18 Sep-Pak cartridges (1 mL cartridge with 100 mg of sorbent, Waters Corp., Milford, Mass.). One hundred μL of serum sample were added to an equal volume of 1% TFA and mixed for 30 seconds on a Vortex mixer. The sample was then applied to a C-18 Sep-Pak cartridge that had been conditioned by washing with 1 mL of methanol followed by 1 mL Milli-Q water. Weakly reed components were eluted by washing with 1 mL of 0. 1% TFA. The bound peptide was eluted with two volumes of 250 μL 80% acetonitrile/0.065% TFA.
The material eluted from the Sep-Pak cartridge was analyzed on a Michrom Ultaafast Microprotein Analyzer equipped with a 150 mm×1 mm, 5μ particle, 300 Å pore C-8 Zorbax column. The column oven was set to 40° C., the flow rate was 100 μL/minute, and injection volumes were typically 5-10 μL. HPLC was performed using 5% acetonitrile/0.1% TFA in water as mobile phase A, and 80% acetonitrile/0.065% TFA as mobile phase B. The eluate was monitored spectiophotometrically at 214 nm. Peptide standards were dissolved in mobile phase A at 0. 1 mg/mL. The gradient was 25-35% B/10 minutes followed by a 5 minute wash step of 100% B and reequilibration at 25% B for 10 minutes.

[1] = system: C. albicans (CA-1, Strain SLU-1); assay: Radial diffusion assay; format: cell-based, Candida albicans; conditions: pmoles of peptide added to well to achieve a 30 mm^2 zone, PROBIT analysis, crude or purified (P′) peptide
Outline: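 Yeast at 1×10^6 CFU/mL in agarose underlayer (3% Sabouraud, 10 mM sodium phosphate pH 7.4); 2-fold peptide dilutions in D-PBS from ~1 mg/mL loaded into wells, 3 h at 37° C, then nutrient overlayer overnight. Value: pmol/well giving 30 mm^2 net clear zone, by PROBIT regression.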

[2] = system: Candida albicans SLU-1 strain; assay: Serum stability, anti-fungal activity after serum incubation by radial diffusion bioassay; format: in vitro ADME, rat or human serum
Protocol: as §1, §2
(§3) The peptides identified and purified after serum incubation as described above were subjected to N-terminal peptide sequencing performed on an Applied Biosystems Model 477A/120A sequencer and to electrospray ionization mass spectrometry (ESI/MS) performed using a VG Biotech Bio-Q Mass Spectrometer. In addition, the peptides identified and purified after serum incubation as described above were also tested for their anti-fungal activity in a radial diffusion bioassay with Candida albicans SLU-1 strain as described in Example 2.

[3] = as above; format: in vitro ADME, rat or human serum; conditions: Activity in Serum t ½ (hr.)
Protocol: as §1, §2, §3

[4] = system: mouse RAW 264.7 cells incubated with E. coli O113 LPS; conditions: RAW 264.7 cells with E. coli O113 LPS; concentration reversing LPS growth inhibition by 50%
mouse RAW 264.7 cells = conditions: RAW 264.7 cell growth inhibited by 50%

Molecule	half-life at 0.5 mg/mL (in vitro)	C. albicans pmol/30 mm^2 zone [1]	half-life at 0.5 mg/mL [3]	further results
CC[C@H](C)[C@H](NC(=O)[C@H](CC(C)C)NC(=O)[C@@H](Cc1c[nH]c2ccccc12)NC(=O)[C@H](N)CCCCN)C(=O)N[C@@H](CCC(N)=O)C(=O)N[C@@H](CC(C)C)C(=O)N[C@@H](Cc1ccccc1)C(=O)N[C@@H](Cc1c[nH]cn1)C(=O)N[C@H](CCCCN)C(=O)N[C@H](CCCCN)C(N)=O [XMP.363]	708 min	1,015 pmol/30 mm^2 zone	–	C. albicans pmol/30 mm^2 zone ([1]; listed as XMP.363P′): 741 pmol/30 mm^2 zone; Activity in Serum t ½ (hr.) [2]: indefinite
CC[C@H](C)[C@H](NC(=O)[C@H](CC(C)C)NC(=O)[C@@H](Cc1c[nH]c2ccccc12)NC(=O)[C@@H](CCCCN)NC(C)=O)C(=O)N[C@@H](CCC(N)=O)C(=O)N[C@@H](CC(C)C)C(=O)N[C@@H](Cc1ccccc1)C(=O)N[C@@H](Cc1c[nH]cn1)C(=O)N[C@H](CCCCN)C(=O)N[C@H](CCCCN)C(N)=O [XMP.364]	1500 min	1,523 pmol/30 mm^2 zone	–	Activity in Serum t ½ (hr.) [2]: indefinite
CC[C@@H](C)[C@@H](NC(=O)[C@@H](CCC(N)=O)NC(=O)[C@@H](CC(C)C)NC(=O)[C@@H](Cc1ccccc1)NC(=O)[C@@H](Cc1c[nH]cn1)NC(=O)[C@@H](CCCCN)NC(=O)[C@@H](CCCCN)NC(C)=O)C(=O)N[C@H](CC(C)C)C(=O)N[C@H](Cc1c[nH]c2ccccc12)C(=O)N[C@H](CCCCN)C(N)=O [XMP.368]	2050 min	744 pmol/30 mm^2 zone	1510 min	–
CC[C@H](C)[C@H](NC(=O)[C@H](CC(C)C)NC(=O)[C@H](Cc1c[nH]c2ccccc12)NC(=O)[C@@H](N)CCCCN)C(=O)N[C@@H](CCCN)C(=O)N[C@@H](CC(C)C)C(=O)N[C@@H](Cc1ccccc1)C(=O)N[C@@H](Cc1c[nH]cn1)C(=O)N[C@@H](CCCCN)C(=O)N[C@@H](CCCCN)C(N)=O [XMP.369] (H-KWLI[Orn]LFHKK-NH2)	36 min	993 pmol/30 mm^2 zone	84 min	C. albicans pmol/30 mm^2 zone ([1]; listed as XMP.369P′): 877 pmol/30 mm^2 zone
CC[C@H](C)[C@H](NC(=O)[C@H](CC(C)C)NC(=O)[C@H](Cc1c[nH]c2ccccc12)NC(=O)[C@H](CCCCN)NC(C)=O)C(=O)N[C@@H](CCCN)C(=O)N[C@@H](CC(C)C)C(=O)N[C@@H](Cc1ccccc1)C(=O)N[C@@H](Cc1c[nH]cn1)C(=O)N[C@@H](CCCCN)C(=O)N[C@@H](CCCCN)C(N)=O [XMP.370] (Ac-KWLI[Orn]LFHKK-NH2)	174 min	310 pmol/30 mm^2 zone	282 min	–
CC[C@H](C)[C@H](NC(=O)[C@H](CC(C)C)NC(=O)[C@H](Cc1c[nH]c2ccccc12)NC(=O)[C@H](CCCCN)NC(C)=O)C(=O)N[C@@H](CCN)C(=O)N[C@@H](CC(C)C)C(=O)N[C@@H](Cc1ccccc1)C(=O)N[C@@H](Cc1c[nH]cn1)C(=O)N[C@@H](CCCCN)C(=O)N[C@@H](CCCCN)C(N)=O [XMP.372] (Ac-KWLI[Dab]LFHKK-NH2)	396 min	328 pmol/30 mm^2 zone	84 min	–
CC[C@@H](C)[C@@H](NC(=O)[C@@H](CCC(N)=O)NC(=O)[C@@H](CC(C)C)NC(=O)[C@H](N)CCCCN)C(=O)N[C@H](CC(C)C)C(=O)N[C@H](Cc1c[nH]c2ccccc12)C(=O)N[C@H](CCCCN)C(=O)N[C@H](CCCCN)C(N)=O [XMP.374]	–	198 pmol/30 mm^2 zone	–	HPLC Peptide in Serum t ½ (hr.) (in vitro): indefinite; Activity in Serum t ½ (hr.) [2]: indefinite
CC[C@@H](C)[C@@H](NC(=O)[C@@H](C)NC(=O)[C@@H](Cc1c[nH]c2ccccc12)NC(=O)[C@@H](CCCCN)NC(=O)[C@H](N)CCCCN)C(=O)N[C@H](CCC(N)=O)C(=O)N[C@H](CC(C)C)C(=O)N[C@H](CCCCN)C(=O)N[C@H](CCCCN)C(N)=O [XMP.375] (H-[dK][dK][dW][dA][dI][dQ][dL][dK][dK]-NH2)	–	123 pmol/30 mm^2 zone	–	HPLC Peptide in Serum t ½ (hr.) (in vitro): indefinite; Activity in Serum t ½ (hr.) [2]: indefinite
CC[C@@H](C)[C@@H](NC(=O)[C@@H](CCC(N)=O)NC(=O)[C@@H](CC(C)C)NC(=O)[C@@H](CCCCN)NC(=O)[C@H](N)CCCCN)C(=O)N[C@H](C)C(=O)N[C@H](Cc1c[nH]c2ccccc12)C(=O)N[C@H](CCCCN)C(=O)N[C@H](CCCCN)C(N)=O [XMP.376] (H-[dK][dK][dL][dQ][dI][dA][dW][dK][dK]-NH2)	–	138 pmol/30 mm^2 zone	–	HPLC Peptide in Serum t ½ (hr.) (in vitro): indefinite; Activity in Serum t ½ (hr.) [2]: indefinite
CCCCCCCCCCCC(=O)N[C@@H](CCCCN)C(=O)N[C@@H](CCCCN)C(=O)N[C@@H](Cc1c[nH]c2ccccc12)C(=O)N[C@@H](C)C(=O)N[C@H](C(=O)N[C@@H](CCC(N)=O)C(=O)N[C@@H](CC(C)C)C(=O)N[C@@H](CCCCN)C(=O)N[C@@H](CCCCN)C(N)=O)[C@@H](C)CC [XMP.411] (Lauroyl-KKWAIQLKK-NH2; C-terminus assumed)	582 min	–	252 min	In Vitro LPS Neutralization EC50 [4]: 2.94 ± 0.14 µg/mL; IC50 (toxicity/growth inhibition of peptide) (mouse RAW 264.7 cells): >25 µg/mL
H-GWLIQLFHKK-NH2 [XMP.388]	24 min	170 pmol/30 mm^2 zone	84 min	–
H-KKPWAIQLKK-NH2 [XMP.379]	48 min	547 pmol/30 mm^2 zone	18 min	–
H-KKWAIQLKK-NH2 [XMP.344]	36 min	251 pmol/30 mm^2 zone	198 min	–
H-KKWLIQAKK-NH2 [XMP.345]	84 min	1,211 pmol/30 mm^2 zone	162 min	–
H-KKWLIQLFHKK-NH2 [XMP.352]	42 min	354 pmol/30 mm^2 zone	72 min	–
H-KKWLIQLKKK-NH2 [XMP.349]	84 min	120 pmol/30 mm^2 zone	198 min	–
H-PWAIQLFHKK-NH2 [XMP.387]	168 min	82 pmol/30 mm^2 zone	138 min	–
H-PWLIQLFHKK-NH2 [XMP.355]	192 min	2,529 pmol/30 mm^2 zone	342 min	C. albicans pmol/30 mm^2 zone ([1]; listed as XMP.355P′): 218 pmol/30 mm^2 zone
